# Data from patent US10238667B2, “Vitamin D receptor/SMAD genomic circuit gates fibrotic response” (Salk Institute for Biological Studies, priority 2013, dated 2019).
# System: primary rat HSCs
# Test: Microarray expression profiling of TGFβ1 and TGFβ1+1,25(OH)2D3-treated HSCs
# Type: cell-based
# Conditions: 24 h
# From the text: VDR Signaling Suppresses TGFβ-induced Pro-Fibrotic Genes. […] Euclidean clustering of both rows and columns using log2 transformed microarray expression data, n=2 per treatment group. […] Data represents the mean±SEM of at least three independent experiments performed in triplicate. Asterisks denote statistically significant differences (Student's unpaired t-test, *p<0.05, **p<0.01). HSCs were isolated from 10-week old male C57BL/6J mice and Wistar rats by in situ pronase, collagenase perfusion and single-step Histogenz gradient as previously reported (Hendriks et al., 1985; Knook et al., 1982). Isolated HSCs were cultured in DMEM (Mediatech) containing 20% FBS (Hyclone) on 6-well plates for 40 hours prior to end-point assays. Total RNA from primary rat or mouse HSCs was isolated using the RNeasy mini kit (Qiagen) according to standard protocols. RNA integrity and quality was assessed using the Agilent Bioanalyzer and prepared for hybridization to Illumina rat or mouse gene expression arrays according to standard Illumina protocols. Feature extraction was performed using the Illumina GenomeStudio software. Normalization and identification of differentially expressed genes from biological duplicates was performed using […] at http://sasquatch.ucsd.edu/vampire/.
# [1] = TGFβ1 1 ng/ml ± 1,25(OH)2D3 100 nM
compound,measurement,setting,value
"C=C1/C(=C\C=C2/CCC[C@]3(C)C([C@H](C)CCCC(C)(C)O)CC[C@@H]23)C[C@@H](O)C[C@@H]1O (stereo partly drawn) [1,25(OH)2D3, 1α,25 dihydroxyvitamin D3]",LOC499078 VitD + TGFbeta AVG signal,"TGFβ1 1 ng/ml + 1,25(OH)2D3 100 nM, Control 3963.4, TGFβ 9788.1",2325
same,Glipr1_predict VitD + TGFbeta AVG signal,"TGFβ1 1 ng/ml + 1,25(OH)2D3 100 nM, Control 3986, TGFβ 9174",1894
same,Sh3kbp1 VitD + TGFbeta AVG signal,"TGFβ1 1 ng/ml + 1,25(OH)2D3 100 nM, Control 4057.3, TGFβ 7133.8",1618
same,Ms4a7_predict VitD + TGFbeta AVG signal,"TGFβ1 1 ng/ml + 1,25(OH)2D3 100 nM, Control 4402.2, TGFβ 10637",1708
same,LOC310190 VitD + TGFbeta AVG signal,"TGFβ1 1 ng/ml + 1,25(OH)2D3 100 nM, Control 4496.5, TGFβ 12465",2594
same,Itgb2 VitD + TGF β Avg Signal,"TGFβ1 1 ng/ml + 1,25(OH)2D3 100 nM, Control 4506.5, TGFβ 5580.6",4858.4
same,Nucb2 VitD + TGFbeta AVG signal,"TGFβ1 1 ng/ml + 1,25(OH)2D3 100 nM, Control 4712.3, TGFβ 10527",2733
same,RT1-Ba VitD + TGFbeta AVG signal,"TGFβ1 1 ng/ml + 1,25(OH)2D3 100 nM, Control 4721.8, TGFβ 13843",3390
same,LOC312102 VitD + TGFbeta AVG signal,"TGFβ1 1 ng/ml + 1,25(OH)2D3 100 nM, Control 5658, TGFβ 19362",4469
same,Ptpro VitD + TGFbeta AVG signal,"TGFβ1 1 ng/ml + 1,25(OH)2D3 100 nM, Control 5856.6, TGFβ 12798",2551
same,Dcir3 VitD + TGFbeta AVG signal,"TGFβ1 1 ng/ml + 1,25(OH)2D3 100 nM, Control 6230.8, TGFβ 11228",1354
same,Oplah VitD + TGFbeta AVG signal,"TGFβ1 1 ng/ml + 1,25(OH)2D3 100 nM, Control 6494.5, TGFβ 16466",1922
same,Itgb1 VitD + TGF β Avg Signal,"TGFβ1 1 ng/ml + 1,25(OH)2D3 100 nM, Control 8050.9, TGFβ 10104.2",7987.9
same,Mmp14 VitD + TGF β Avg Signal,"TGFβ1 1 ng/ml + 1,25(OH)2D3 100 nM, Control 8370.4, TGFβ 15560.3",14980.5
same,Timp1 VitD + TGF β Avg Signal,"TGFβ1 1 ng/ml + 1,25(OH)2D3 100 nM, Control 10124.0, TGFβ 13471.4",9101.3
same,Ctgf VitD + TGF β Avg Signal,"TGFβ1 1 ng/ml + 1,25(OH)2D3 100 nM, Control 10532.3, TGFβ 20216.0",9730.1
same,Col1a2 VitD + TGF β Avg Signal,"TGFβ1 1 ng/ml + 1,25(OH)2D3 100 nM, Control 10691.1, TGFβ 24123.0",9593.3
same,Ms4a6b VitD + TGFbeta AVG signal,"TGFβ1 1 ng/ml + 1,25(OH)2D3 100 nM, Control 12345, TGFβ 21779",5158
same,Ctsc VitD + TGFbeta AVG signal,"TGFβ1 1 ng/ml + 1,25(OH)2D3 100 nM, Control 16420, TGFβ 32328",6319
same,Bmp2 TGFb/TGFB + VitD3,[1],5.3 NM_017178.1 Rattus norvegicus bone
same,Cacnb3 TGFb/TGFB + VitD3,[1],6.0 NM_012828.1 Rattus norvegicus calcium channel
same,Ccl12_predicte TGFb/TGFB + VitD3,[1],5.5 XM_213425.2 PREDICTED: Rattus norvegicus
same,Ccr5 TGFb/TGFB + VitD3,[1],12.9 NM_053960.2 Rattus norvegicus chemokine (C-
same,Cdh1 TGFb/TGFB + VitD3,[1],4.4 NM_031334.1 Rattus norvegicus cadherin 1
same,Chst1_predict TGFb/TGFB + VitD3,[1],12.7 XM_575178.1 PREDICTED: Rattus norvegicus
same,Ctsc TGFb/TGFB + VitD3,[1],5.1 NM_017097.1 Rattus norvegicus cathepsin C
same,Cysltr1 TGFb/TGFB + VitD3,[1],4.4 NM_053641.1 Rattus norvegicus cysteinyl
same,Dcir2 TGFb/TGFB + VitD3,[1],4.6 XM_579146.1 PREDICTED: Rattus norvegicus
same,Dcir3 TGFb/TGFB + VitD3,[1],8.3 XM_579150.1 PREDICTED: Rattus norvegicus
same,Dsipi TGFb/TGFB + VitD3,[1],4.0 NM_031345.1 Rattus norvegicus delta sleep
same,Emr1 TGFb/TGFB + VitD3,[1],5.9 XM_579174.1 PREDICTED: Rattus norvegicus
same,Fchsd2_predic TGFb/TGFB + VitD3,[1],4.9 XM_218965.3 PREDICTED: Rattus norvegicus
same,Gas7 TGFb/TGFB + VitD3,[1],4.9 NM_053484.1 Rattus norvegicus growth arrest
same,Glipr1_predict TGFb/TGFB + VitD3,[1],4.8 XM_576223.1 PREDICTED: Rattus norvegicus GLI
same,Hod TGFb/TGFB + VitD3,[1],5.1 NM_133621.2 Rattus norvegicus homeobox only
same,LOC304349 TGFb/TGFB + VitD3,[1],7.1 XM_221990.3 PREDICTED: Rattus norvegicus
same,LOC305269 TGFb/TGFB + VitD3,[1],4.0 XM_223309.3 PREDICTED: Rattus norvegicus
same,LOC310190 TGFb/TGFB + VitD3,[1],4.8 XM_226886.3 PREDICTED: Rattus norvegicus
same,LOC312102 TGFb/TGFB + VitD3,[1],4.3 XM_231461.3 PREDICTED: Rattus norvegicus
same,LOC361699 TGFb/TGFB + VitD3,[1],3.8 XM_341982.2 PREDICTED: Rattus norvegicus
same,LOC366205 TGFb/TGFB + VitD3,[1],6.6 XM_345441.2 PREDICTED: Rattus norvegicus
same,LOC366608 TGFb/TGFB + VitD3,[1],4.4 XM_345665.2 PREDICTED: Rattus norvegicus
same,LOC497796 TGFb/TGFB + VitD3,[1],5.1 XM_579296.1 PREDICTED: Rattus norvegicus
same,LOC498741 TGFb/TGFB + VitD3,[1],6.1 XM_574019.1 PREDICTED: Rattus norvegicus
same,LOC498751 TGFb/TGFB + VitD3,[1],5.1 XM_574030.1 PREDICTED: Rattus norvegicus
same,LOC499078 TGFb/TGFB + VitD3,[1],4.2 XM_574362.1 PREDICTED: Rattus norvegicus
same,LOC499100 TGFb/TGFB + VitD3,[1],3.9 XM_218456.3 PREDICTED: Rattus norvegicus
same,LOC499272 TGFb/TGFB + VitD3,[1],4.4 XM_579937.1 PREDICTED: Rattus norvegicus
same,LOC499356 TGFb/TGFB + VitD3,[1],11.0 XM_574669.1 PREDICTED: Rattus norvegicus
same,LOC501570 TGFb/TGFB + VitD3,[1],4.6 XM_576974.1 PREDICTED: Rattus norvegicus
same,LOC502904 TGFb/TGFB + VitD3,[1],6.7 XM_578406.1 PREDICTED: Rattus norvegicus
same,LOC502907 TGFb/TGFB + VitD3,[1],9.6 XM_578409.1 PREDICTED: Rattus norvegicus
same,Ly49si1 TGFb/TGFB + VitD3,[1],4.6 XM_579297.1 PREDICTED: Rattus norvegicus
same,Ly49si2 TGFb/TGFB + VitD3,[1],4.6 XM_579298.1 PREDICTED: Rattus norvegicus
same,Ms4a4a_predi TGFb/TGFB + VitD3,[1],17.7 XM_342027.1 PREDICTED: Rattus norvegicus
same,Ms4a6a_predi TGFb/TGFB + VitD3,[1],4.5 XM_215145.3 PREDICTED: Rattus norvegicus
same,Ms4a6b TGFb/TGFB + VitD3,[1],4.2 NM_00100697 Rattus norvegicus membrane-
same,Ms4a7_predict TGFb/TGFB + VitD3,[1],6.2 XM_215200.2 PREDICTED: Rattus norvegicus
same,Nucb2 TGFb/TGFB + VitD3,[1],3.9 NM_021663.2 Rattus norvegicus nucleobindin 2
same,Oplah TGFb/TGFB + VitD3,[1],8.6 NM_053904.1 Rattus norvegicus 5-oxoprolinase
same,Pcsk1 TGFb/TGFB + VitD3,[1],7.4 NM_017091.1 Rattus norvegicus proprotein
same,Pirb TGFb/TGFB + VitD3,[1],5.3 NM_031713.1 Rattus norvegicus paired-Ig-like
same,Ptprc TGFb/TGFB + VitD3,[1],4.2 NM_138507.1 Rattus norvegicus protein tyrosine
same,Ptpro TGFb/TGFB + VitD3,[1],5.0 NM_017336.1 Rattus norvegicus protein tyrosine
same,RT1-Ba TGFb/TGFB + VitD3,[1],4.1 XM_579226.1 PREDICTED: Rattus norvegicus
same,Sh3kbp1 TGFb/TGFB + VitD3,[1],4.4 NM_053360.2 Rattus norvegicus SH3-domain
same,Slamf9_predic TGFb/TGFB + VitD3,[1],4.2 XM_213932.2 PREDICTED: Rattus norvegicus
same,Stab1_predict TGFb/TGFB + VitD3,[1],5.6 XM_214279.3 PREDICTED: Rattus norvegicus
same,Tmem26_pred TGFb/TGFB + VitD3,[1],3.8 XM_228108.3 PREDICTED: Rattus norvegicus
